Where two headings read alike, the source gives them in different places.
Columns and labels:
[1] = target: T1, rat brain N-type calcium channel subunits (α1B+α2δ+β1b cDNA subunits) (Rattus norvegicus, UniProt Q02294); assay: N-type calcium channel block, whole cell patch clamp in HEK 293 cells; format: cell-based; conditions: holding potential −80 mV to +10 mV
T1 construct: expressed in transfected cells; host or cells: HEK 293
Experimental: N-type calcium channel blocking activity was assayed in human embryonic kidney cells, HEK 293, stably transfected with the rat brain N-type calcium channel subunits (α1B+α2δ+β1b cDNA subunits). Alternatively, N-type calcium channels (α1B+α2δ+β1b cDNA subunits), L-type channels (α1C+α2δ+β1b cDNA subunits) and P/Q-type channels (α1A+α2δ+β1b cDNA subunits) were transiently expressed in HEK 293 cells. Briefly, cells were cultured in Dulbecco's modified eagle medium (DMEM) supplemented with 10% fetal bovine serum, 200 U/ml penicillin and 0.2 mg/ml streptomycin at 37° C. with 5% CO2. At 85% confluency cells were split with 0.25% trypsin/1 mM EDTA and plated at 10% confluency on glass coverslips. At 12 hours the medium was replaced and the cells transiently transfected using a standard calcium phosphate protocol and the appropriate calcium channel cDNA's. Fresh DMEM was supplied and the cells transferred to 28° C./5% CO2. Cells were incubated for 1 to 2 days prior to whole cell recording.
Whole cell patch clamp experiments were performed using an Axopatch 200B amplifier (Axon Instruments, Burlingame, Calif.) linked to a personal computer equipped with pCLAMP software. The external and internal recording solutions contained, respectively, 5 mM BaCl2, 10 mM MgCl2, 10 mM HEPES, 40 mM TEACl, 10 mM glucose, 87.5 mM CsCl (pH 7.2) and 108 mM CsMS, 4 mM MgCl2, 9 mM EGTA, 9 mM HEPES (pH 7.2). Currents were typically elicited from a holding potential of −80 mV to +10 mV using Clampex software (Axon Instruments). Typically, currents were first elicited with low frequency stimulation (0.067 Hz) and allowed to stabilize prior to application of the compounds. The compounds were then applied during the low frequency pulse trains for two to three minutes to assess tonic block, and subsequently the pulse frequency was increased to 0.2 Hz to assess frequency dependent block. Data were analyzed using Clampfit (Axon Instruments) and SigmaPlot 4.0 (Jandel Scientific).

[2] = test system: Rings from Rat Mesenteric Artery maximally pre-contracted with PE; assay: Relaxation of pre-contracted rings from rat mesenteric artery; conditions: compound at 10^−5 M, rings maximally pre-contracted with PE at 10^−4 M, read-out: Mesenteric artery Max % relax
Experimental: Sprague-Dawley rats (350-400 g, Charles River Canada) were anaesthetized with sodium pentobarbital (60 mg/kg). The mesenteric arteries were removed and suspended in a tissue bath filled with Krebs-Henseleit solution aerated with 95% O2 and 5% CO2 at 37° C. The tissues were equilibrated for one hour prior to the construction of a concentration-response curve to phenylephrine (PE). Following recovery of the response to PE, a second curve to PE was constructed at 5 min after the addition of a calcium channel blocker (n=2-8, each from a separate rat) or the vehicle (50 μl of equimolar DMSO). After recovery, a third and fourth curve to PE were constructed after addition of a higher concentration of blocker or vehicle. The protocol was repeated using portal veins (n=4, each from a separate rat).

[3] = target: T2, human α1G T-type channels (Homo sapiens, UniProt O43497); assay: T-type calcium channel block, patch clamp in HEK cell lines; format: cell-based
T2 construct: expressed in transfected cells; host or cells: HEK cell lines
T2 sequence (O43497 whole entry): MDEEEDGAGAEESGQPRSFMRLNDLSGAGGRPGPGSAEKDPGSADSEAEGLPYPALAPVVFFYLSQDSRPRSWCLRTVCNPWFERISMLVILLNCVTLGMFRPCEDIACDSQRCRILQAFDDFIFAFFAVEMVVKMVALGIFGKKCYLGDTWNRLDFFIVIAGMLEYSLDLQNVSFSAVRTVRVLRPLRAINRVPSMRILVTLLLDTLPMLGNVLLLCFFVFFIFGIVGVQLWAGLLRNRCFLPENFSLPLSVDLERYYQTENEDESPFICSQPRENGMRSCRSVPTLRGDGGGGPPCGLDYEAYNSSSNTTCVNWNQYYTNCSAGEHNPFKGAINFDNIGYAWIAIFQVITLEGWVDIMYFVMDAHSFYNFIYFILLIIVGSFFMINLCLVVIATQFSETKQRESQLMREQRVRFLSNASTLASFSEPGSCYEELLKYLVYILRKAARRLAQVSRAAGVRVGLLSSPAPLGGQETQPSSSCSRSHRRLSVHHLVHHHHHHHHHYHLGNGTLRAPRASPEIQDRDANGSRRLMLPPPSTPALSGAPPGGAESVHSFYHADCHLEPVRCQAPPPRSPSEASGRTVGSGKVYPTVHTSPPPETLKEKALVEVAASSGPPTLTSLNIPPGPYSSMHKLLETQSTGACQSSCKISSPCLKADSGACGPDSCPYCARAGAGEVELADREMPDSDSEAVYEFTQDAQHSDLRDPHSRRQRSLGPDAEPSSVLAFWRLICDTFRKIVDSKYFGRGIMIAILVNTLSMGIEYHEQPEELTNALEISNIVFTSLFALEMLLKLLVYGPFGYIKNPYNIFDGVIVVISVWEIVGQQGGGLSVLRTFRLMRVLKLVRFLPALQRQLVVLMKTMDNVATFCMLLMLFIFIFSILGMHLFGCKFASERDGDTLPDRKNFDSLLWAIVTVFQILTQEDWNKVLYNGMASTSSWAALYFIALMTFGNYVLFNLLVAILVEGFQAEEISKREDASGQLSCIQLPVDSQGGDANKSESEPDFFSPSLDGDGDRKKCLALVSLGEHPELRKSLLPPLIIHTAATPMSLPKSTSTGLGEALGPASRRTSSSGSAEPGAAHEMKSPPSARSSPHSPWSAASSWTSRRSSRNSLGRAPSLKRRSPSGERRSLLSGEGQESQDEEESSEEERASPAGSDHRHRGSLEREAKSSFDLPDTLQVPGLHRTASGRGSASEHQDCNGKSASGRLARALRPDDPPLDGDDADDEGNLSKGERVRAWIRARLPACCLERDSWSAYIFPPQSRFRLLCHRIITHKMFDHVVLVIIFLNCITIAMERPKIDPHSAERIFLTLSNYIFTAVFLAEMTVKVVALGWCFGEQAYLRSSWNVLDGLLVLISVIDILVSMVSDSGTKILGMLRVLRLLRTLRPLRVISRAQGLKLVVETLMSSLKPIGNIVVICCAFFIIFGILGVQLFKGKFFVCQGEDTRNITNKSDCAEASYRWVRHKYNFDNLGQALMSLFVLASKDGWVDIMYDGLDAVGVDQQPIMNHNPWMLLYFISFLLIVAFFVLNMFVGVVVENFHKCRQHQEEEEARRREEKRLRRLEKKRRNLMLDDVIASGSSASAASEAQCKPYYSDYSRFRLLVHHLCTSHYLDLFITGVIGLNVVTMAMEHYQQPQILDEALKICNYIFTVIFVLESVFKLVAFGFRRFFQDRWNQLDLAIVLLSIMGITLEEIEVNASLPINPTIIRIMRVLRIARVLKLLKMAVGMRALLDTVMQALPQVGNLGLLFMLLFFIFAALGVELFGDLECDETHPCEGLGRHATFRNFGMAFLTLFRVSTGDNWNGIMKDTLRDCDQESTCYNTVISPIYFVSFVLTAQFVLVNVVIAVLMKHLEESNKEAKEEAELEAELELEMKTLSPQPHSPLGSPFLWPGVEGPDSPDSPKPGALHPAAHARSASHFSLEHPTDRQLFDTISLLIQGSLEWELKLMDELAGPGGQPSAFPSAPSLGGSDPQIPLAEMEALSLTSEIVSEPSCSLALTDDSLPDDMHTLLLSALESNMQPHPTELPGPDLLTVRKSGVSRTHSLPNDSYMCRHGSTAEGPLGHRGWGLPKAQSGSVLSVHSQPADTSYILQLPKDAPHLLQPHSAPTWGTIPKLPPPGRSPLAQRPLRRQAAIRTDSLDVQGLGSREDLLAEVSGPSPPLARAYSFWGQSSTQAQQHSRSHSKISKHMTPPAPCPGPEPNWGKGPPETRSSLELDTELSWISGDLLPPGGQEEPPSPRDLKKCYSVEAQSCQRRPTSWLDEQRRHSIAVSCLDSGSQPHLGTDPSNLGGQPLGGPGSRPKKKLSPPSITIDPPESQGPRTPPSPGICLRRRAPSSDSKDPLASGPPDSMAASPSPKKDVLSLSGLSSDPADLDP
Experimental: Standard patch-clamp techniques were employed to identify blockers of T-type currents. Briefly, previously described HEK cell lines stably expressing human α1G T-type channels were used for all the recordings (passage #: 4-20, 37° C., 5% CO2). To obtain T-type currents, plastic dishes containing semi-confluent cells were positioned on the stage of a ZEISS AXIOVERT S100 microscope after replacing the culture medium with external solution (see below). Whole-cell patches were obtained using pipettes (borosilicate glass with filament, O.D.: 1.5 mm, I.D.: 0.86 mm, 10 cm length), fabricated on a SUTTER P-97 puller with resistance values of ˜5 MΩ (see below for internal solution).
T-type currents were reliably obtained by using two voltage protocols: • (1) “non-inactivating”, and (2) “inactivation”
In the non-inactivating protocol, the holding potential is set at −110 mV and with a pre-pulse at −100 mV for 1 second prior to the test pulse at −40 mV for 50 ms. In the inactivation protocol, the pre-pulse is at approximately −85 mV for 1 second, which inactivates about 15% of the T-type channels.
Test compounds were dissolved in external solution, 0.1-0.01% DMSO. After ˜10 min rest, they were applied by gravity close to the cell using a WPI microfil tubing. The “non-inactivated” pre-pulse was used to examine the resting block of a compound. The “inactivated” protocol was employed to study voltage-dependent block. However, the initial data shown below were mainly obtained using the non-inactivated protocol only. IC50 values are shown for various compounds of the invention in Table 5.

[4] = test system: Rings from Rat Portal Vein maximally pre-contracted with PE; assay: Relaxation of pre-contracted rings from rat portal vein; conditions: compound at 10^−5 M, rings maximally pre-contracted with PE at 10^−4 M, read-out: Portal vein Max % relax
[5] = Blood pressure reduction in SHR; format: in vivo
[6] = test system: T-type over L-type channels; conditions: cited from earlier work
[7] = low frequency stimulation 0.067 Hz (tonic block), read-out: IC50 @ 0.067 Hz
[8] = pulse frequency 0.2 Hz (frequency dependent block), read-out: IC50 @ 0.2 Hz
[9] = non-inactivating protocol, pre-pulse −100 mV (resting block), read-out: IC50 @ −100 mV
[10] = −80 mV (inactivation protocol, voltage-dependent block), read-out: IC50 @ −80 mV

T1 sequence (Q02294 whole entry): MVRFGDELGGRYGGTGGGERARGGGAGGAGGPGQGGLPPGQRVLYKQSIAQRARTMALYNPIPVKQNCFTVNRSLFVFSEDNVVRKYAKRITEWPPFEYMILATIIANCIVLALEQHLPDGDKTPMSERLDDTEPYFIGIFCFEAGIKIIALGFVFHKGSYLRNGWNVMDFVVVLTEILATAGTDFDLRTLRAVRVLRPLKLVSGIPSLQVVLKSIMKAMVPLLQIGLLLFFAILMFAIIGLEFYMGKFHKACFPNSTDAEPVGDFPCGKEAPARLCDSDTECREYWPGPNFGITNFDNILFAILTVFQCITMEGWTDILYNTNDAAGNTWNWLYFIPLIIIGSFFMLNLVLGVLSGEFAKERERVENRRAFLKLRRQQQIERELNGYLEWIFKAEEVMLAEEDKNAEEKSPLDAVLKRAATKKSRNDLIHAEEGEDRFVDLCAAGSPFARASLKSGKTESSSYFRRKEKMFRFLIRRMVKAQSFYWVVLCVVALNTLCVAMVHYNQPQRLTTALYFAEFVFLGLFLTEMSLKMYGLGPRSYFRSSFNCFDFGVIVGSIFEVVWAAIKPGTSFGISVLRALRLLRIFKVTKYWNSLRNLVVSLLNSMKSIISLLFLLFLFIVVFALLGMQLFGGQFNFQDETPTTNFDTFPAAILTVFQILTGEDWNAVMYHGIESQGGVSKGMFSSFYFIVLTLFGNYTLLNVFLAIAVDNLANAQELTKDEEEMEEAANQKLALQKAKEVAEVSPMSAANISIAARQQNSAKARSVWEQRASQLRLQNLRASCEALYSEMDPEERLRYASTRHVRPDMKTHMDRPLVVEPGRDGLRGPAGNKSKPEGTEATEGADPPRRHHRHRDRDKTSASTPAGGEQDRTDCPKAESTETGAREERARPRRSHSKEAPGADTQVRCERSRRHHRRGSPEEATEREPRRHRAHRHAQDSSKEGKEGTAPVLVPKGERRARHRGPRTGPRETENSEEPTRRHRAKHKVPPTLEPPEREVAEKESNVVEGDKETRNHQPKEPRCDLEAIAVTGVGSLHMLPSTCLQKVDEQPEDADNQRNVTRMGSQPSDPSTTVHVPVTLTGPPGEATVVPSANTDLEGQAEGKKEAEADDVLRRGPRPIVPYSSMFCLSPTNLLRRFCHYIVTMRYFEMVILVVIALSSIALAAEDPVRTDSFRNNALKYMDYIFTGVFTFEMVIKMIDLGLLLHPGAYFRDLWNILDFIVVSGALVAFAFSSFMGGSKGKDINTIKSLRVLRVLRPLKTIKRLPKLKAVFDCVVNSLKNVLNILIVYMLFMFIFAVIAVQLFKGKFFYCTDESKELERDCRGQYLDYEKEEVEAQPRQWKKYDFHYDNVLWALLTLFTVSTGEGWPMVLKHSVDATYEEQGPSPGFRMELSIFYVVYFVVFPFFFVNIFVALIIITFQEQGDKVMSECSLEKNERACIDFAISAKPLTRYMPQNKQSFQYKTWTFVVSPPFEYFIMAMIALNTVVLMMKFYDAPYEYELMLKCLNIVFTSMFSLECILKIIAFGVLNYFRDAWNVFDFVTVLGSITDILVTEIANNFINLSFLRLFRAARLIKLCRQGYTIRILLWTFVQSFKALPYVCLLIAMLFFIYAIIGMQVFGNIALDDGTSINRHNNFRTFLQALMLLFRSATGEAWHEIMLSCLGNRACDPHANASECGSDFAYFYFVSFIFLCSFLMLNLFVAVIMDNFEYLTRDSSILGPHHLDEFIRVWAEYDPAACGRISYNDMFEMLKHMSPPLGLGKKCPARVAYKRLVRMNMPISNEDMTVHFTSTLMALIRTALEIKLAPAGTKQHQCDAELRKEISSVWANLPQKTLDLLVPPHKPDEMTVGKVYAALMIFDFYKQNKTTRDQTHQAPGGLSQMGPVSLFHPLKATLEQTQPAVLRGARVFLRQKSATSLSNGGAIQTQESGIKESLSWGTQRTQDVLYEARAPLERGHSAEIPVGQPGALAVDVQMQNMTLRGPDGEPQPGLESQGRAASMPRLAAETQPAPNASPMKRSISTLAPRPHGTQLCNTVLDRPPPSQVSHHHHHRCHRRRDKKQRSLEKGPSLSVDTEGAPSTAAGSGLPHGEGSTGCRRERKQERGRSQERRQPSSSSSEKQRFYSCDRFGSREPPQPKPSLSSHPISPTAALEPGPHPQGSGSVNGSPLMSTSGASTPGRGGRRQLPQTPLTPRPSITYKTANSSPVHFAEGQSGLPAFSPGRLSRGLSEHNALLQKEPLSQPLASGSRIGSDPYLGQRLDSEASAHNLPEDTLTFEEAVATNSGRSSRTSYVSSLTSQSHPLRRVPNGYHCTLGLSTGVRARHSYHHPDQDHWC

IC50 [1, 7] [µM]	IC50 [1, 8] [µM]	IC50 [3, 9] [µM]	IC50 [3, 10] [µM]	Compound	Emax at 10 µM [2] [%]	Emax at 10 µM [4] [%]	BP SHR at 4 hrs % reduction [5] [n = 4%]	selective for T-type over L-type channels [6]
0.086	0.059	0.038	0.012	CC(C)(C)c1ccc(C(=O)NC/C=C\CNC(=O)CCCCC(c2ccc(F)cc2)c2ccc(F)cc2)cc1 [Compound P4, N-{(Z)-4-[6,6-Bis-(4-fluoro-phenyl)-hexanoylamino]-but-2-enyl}-4-tert-butyl-benzamide]	8			
0.074	0.046	0.027	0.007	O=C(CCCCC(c1ccc(F)cc1)c1ccc(F)cc1)NC/C=C\CNC(=O)c1cc(C(F)(F)F)cc(C(F)(F)F)c1 [Compound P5, N-{(Z)-4-[6,6-Bis-(4-fluoro-phenyl)-hexanoylamino]-but-2-enyl}-3,5-bis-trifluoromethyl-benzamide]	10			
0.058	0.027	0.128	0.067	O=C(CCCCC(c1ccc(F)cc1)c1ccc(F)cc1)NC/C=C\CNC(=O)COc1ccc(Cl)cc1 [Compound P6, 6,6-Bis-(4-fluoro-phenyl)-hexanoic acid{(Z)-4-[2-(4-chloro-phenoxy)-acetylamino]-but-2-enyl}-amide]	35	28		
0.182	0.112	0.02	0.006	O=C(CCCCC(c1ccc(F)cc1)c1ccc(F)cc1)NC/C=C\CNC(=O)c1ccc(F)cc1 [Compound P10, N-{(Z)-4-[6,6-Bis-(4-fluoro-phenyl)-hexanoylamino]-but-2-enyl}-4-fluoro-benzamide]	35	38		
0.019	0.127	0.054	0.021	O=C(CCCCC(c1ccc(F)cc1)c1ccc(F)cc1)NC/C=C/CNC(=O)c1cc(C(F)(F)F)cc(C(F)(F)F)c1 [Compound P15, N-{(E)-4-[6,6-Bis-(4-fluoro-phenyl)-hexanoylamino]-but-2-enyl}-3,5-bis-trifluoromethyl-benzamide]	9			
				COc1c(C(C)(C)C)cc(C(=O)NCC#CCNC(=O)CCCCC(c2ccc(F)cc2)c2ccc(F)cc2)cc1C(C)(C)C [Compound P23, N-{4-[6,6-Bis-(4-fluoro-phenyl)-hexanoylamino]-but-2-ynyl}-3,5-di-tert-butyl-4-methoxy-benzamide]	0			
				CC(C)(C)c1ccc(C(=O)NCC#CCNC(=O)CCCCC(c2ccc(F)cc2)c2ccc(F)cc2)cc1 [Compound P24, N-{4-[6,6-Bis-(4-fluoro-phenyl)-hexanoylamino]-but-2-ynyl}-4-tert-butyl-benzamide]	0			
0.144	0.04	0.336	0.202	Cc1ccc(C(=O)NCC#CCNC(=O)CCCCC(c2ccc(F)cc2)c2ccc(F)cc2)cc1 [Compound P26, N-{4-[6,6-Bis-(4-fluoro-phenyl)-hexanoylamino]-but-2-ynyl}-4-methyl-benzamide]	40	34		
				COc1ccc(C(=O)NCC#CCNC(=O)CCCCC(c2ccc(F)cc2)c2ccc(F)cc2)cc1 [Compound P27, N-{4-[6,6-Bis-(4-fluoro-phenyl)-hexanoylamino]-but-2-ynyl}-4-methoxy-benzamide]	41	51		
0.36	0.36	0.072	0.029	O=C(CCCCC(c1ccc(F)cc1)c1ccc(F)cc1)NCC#CCNC(=O)c1ccc(Cl)cc1 [Compound P28, N-{4-[6,6-Bis-(4-fluoro-phenyl)-hexanoylamino]-but-2-ynyl}-4-chloro-benzamide]	61	25	13	
0.29	0.29	0.696	0.101	O=C(CCCCC(c1ccc(F)cc1)c1ccc(F)cc1)NCC#CCNC(=O)c1ccc(F)cc1 [Compound P29, N-{4-[6,6-Bis-(4-fluoro-phenyl)-hexanoylamino]-but-2-ynyl}-4-fluoro-benzamide]	63	51		
2.2	0.568	1.8	1.1	O=C(CC(c1ccccc1)c1ccccc1)NCC#CCN(Cc1ccccn1)Cc1ccccn1 [Compound P32, N-[4-(Bis-pyridin-2-ylmethyl-amino)-but-2-ynyl]-3,3-diphenyl-propionamide]	50	49		
0.31	0.3	0.031	0.008	CC(C)c1ccc(C(=O)NCCCCNC(=O)CCCCC(c2ccc(F)cc2)c2ccc(F)cc2)cc1 [Compound P37, N-{4-[6,6-Bis-(4-fluoro-phenyl)-hexanoylamino]-butyl}-4-isopropyl-benzamide]	42	51		
				COCC(=O)O[C@]1(CCN(C)CCCc2nc3ccccc3[nH]2)CCc2cc(F)ccc2[C@@H]1C(C)C [Mibefradil]				10-30 fold

Source: patent US7511077B2, “Diamine calcium channel blockers” (Neuromed Pharmaceuticals Ltd., priority 2005, dated 2009)
